Read-outs that look alike come from different tables or passages of the source.
Assays:
Format in all cases: biochemical
procaspase-7 = molecular target: T1, procaspase-7 (Homo sapiens, UniProt P55210); assay: Executioner procaspase-7 activation assay (Ac-DEVD-AFC fluorogenic substrate); conditions: incubation with compound for 5 h at 37° C.; 100 nM procaspase
T1 construct: His6 (C); made in house; host or cells: E. coli BL21(DE3)RP, pET-21b
T1 sequence (P55210 1-303): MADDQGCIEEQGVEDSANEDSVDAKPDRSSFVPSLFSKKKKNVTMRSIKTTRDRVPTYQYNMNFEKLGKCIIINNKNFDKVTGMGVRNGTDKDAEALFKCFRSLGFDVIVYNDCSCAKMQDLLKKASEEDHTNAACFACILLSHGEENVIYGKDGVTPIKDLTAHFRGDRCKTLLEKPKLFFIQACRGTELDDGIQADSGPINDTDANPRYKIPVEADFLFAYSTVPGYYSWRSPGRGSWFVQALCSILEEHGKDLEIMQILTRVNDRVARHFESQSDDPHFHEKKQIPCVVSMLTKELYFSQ
Experimental: (§1) The executioner procaspase-3, -6 and -7 activation assay protocol involves incubating the target protein at the physiologically-relevant concentration of 100 nM with activating compounds (ranging from 100 nM to 100 uM) in a total volume of 50 μL consisting of a reaction buffer of 50 mM HEPES, pH 7.4, 50 mM KCl, 1 mM DTT and 0.01% Triton-X100 (to reduce false positive hits due to compound aggregation). The procaspase/small molecule incubations are then agitated at 37° C. and assayed at various time points by addition of the fluorogenic peptide substrate 7-Amino-4-trifluoromethylcoumarin-DEVD (Ac-DEVD-AFC) (procaspases-3, -7) or Ac-VEID-AFC (procaspase-6) to a final concentration of 25 μM and analyzed by a kinetic 30 minute assay (excitation 365 nm and emission 495 nm). The final concentration of DMSO in each well is 3% and has no effect on enzyme stability or activity. […] All components of the assay including protein, substrate and inhibitor are stored as frozen aliquots and thawed immediately prior to the assay.
(§2) Tables 1 and 2. Procaspase activation as a result of incubation with compound for 5 h at 37° C. (+++ EC50˜0.5-10 μM; ++ EC50˜10-50 μM; + EC50˜50-200 μM; -no activation observed; ND not determined).

procaspase-6 = molecular target: T2, procaspase-6 (Homo sapiens, UniProt P55212); assay: Executioner procaspase-6 activation assay (Ac-VEID-AFC fluorogenic substrate); conditions: incubation with compound for 5 h at 37° C.; 100 nM procaspase
T2 sequence (P55212 1-293): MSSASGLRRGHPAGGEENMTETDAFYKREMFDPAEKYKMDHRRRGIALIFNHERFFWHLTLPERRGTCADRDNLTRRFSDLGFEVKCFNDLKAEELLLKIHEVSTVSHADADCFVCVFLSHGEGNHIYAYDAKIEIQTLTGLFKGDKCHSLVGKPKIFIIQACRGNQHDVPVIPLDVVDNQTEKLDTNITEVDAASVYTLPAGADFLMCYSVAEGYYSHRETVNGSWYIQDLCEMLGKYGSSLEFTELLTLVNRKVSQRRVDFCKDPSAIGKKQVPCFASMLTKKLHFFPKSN
Experimental: as §1, §2

procaspase-3 = molecular target: T3, procaspase-3 (Homo sapiens, UniProt P42574); assay: Executioner procaspase-3 activation assay (Ac-DEVD-AFC fluorogenic substrate)
T3 construct: His6 (C); made in house; host or cells: E. coli BL21(DE3)RP, pET-23b
T3 sequence (P42574 1-277): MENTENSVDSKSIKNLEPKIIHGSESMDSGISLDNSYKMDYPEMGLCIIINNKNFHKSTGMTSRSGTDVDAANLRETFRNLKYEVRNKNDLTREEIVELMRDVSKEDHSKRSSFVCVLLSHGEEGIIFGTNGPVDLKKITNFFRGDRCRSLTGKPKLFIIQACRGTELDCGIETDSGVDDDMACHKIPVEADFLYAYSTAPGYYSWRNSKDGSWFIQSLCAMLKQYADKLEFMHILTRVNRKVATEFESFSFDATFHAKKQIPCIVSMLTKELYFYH
Experimental: The executioner procaspase-3, -6 and -7 activation assay protocol involves incubating the target protein at the physiologically-relevant concentration of 100 nM with activating compounds (ranging from 100 nM to 100 uM) in a total volume of 50 μL consisting of a reaction buffer of 50 mM HEPES, pH 7.4, 50 mM KCl, 1 mM DTT and 0.01% Triton-X100 (to reduce false positive hits due to compound aggregation). […] All components of the assay including protein, substrate and inhibitor are stored as frozen aliquots and thawed immediately prior to the assay.

[1] = incubation with compound for 5 h at 37° C., 100 nM procaspase, read-out: Procaspase Activation 3

| Structure (SMILES) | EC50 (procaspase-7) | EC50 (procaspase-6) | EC50 (procaspase-3; [1]) | EC50 (procaspase-3) |
| --- | --- | --- | --- | --- |
| COc1cccc2cc(C(=O)Nc3cccc(-c4cccc5[nH]ccc45)c3)c(=O)oc12 [compound 168, 8-Methoxy-2-oxo-2H-chromene-3-carboxylic acid [3-(1H-indol-4-yl)-phenyl]-amide] | > 100 µM | > 100 µM |  | > 100 µM |
| O=C(Nc1cccc(-c2cccc3[nH]ccc23)c1)c1cc2cccc(O)c2oc1=O [compound 167, 8-Hydroxy-2-oxo-2H-chromene-3-carboxylic acid [3-(1H-indol-4-yl)-phenyl]-amide] | > 100 µM | > 100 µM |  | > 100 µM |
| COc1cccc2cc(C(=O)Nc3cccc(-c4ccc5ccccc5c4)c3)c(=O)oc12 [compound 81, 8-Methoxy-2-oxo-2H-chromene-3-carboxylic acid (3-Naphthalen-2-yl-phenyl)-amide] | > 100 µM | > 100 µM | > 100 µM |  |
| O=C(Nc1cccc(-c2ccccc2OC(F)(F)F)c1)c1cc2cccc(O)c2oc1=O [compound 71, 8-Hydroxy-2-oxo-2H-chromene-3-carboxylic acid (2′-trifluoromethoxy-biphenyl-3-yl)-amide] | > 100 µM | > 100 µM | > 100 µM |  |
| COc1cccc2cc(C(=O)Nc3cccc(-c4ccc(Oc5ccccc5)cc4)c3)c(=O)oc12 [compound 60, 8-Methoxy-2-oxo-2H-chromene-3-carboxylic acid (4′-phenoxy-biphenyl-3-yl)-amide] | > 100 µM | > 100 µM | > 100 µM |  |
| O=C(Nc1cccc(-c2ccc(Oc3ccccc3)cc2)c1)c1cc2cccc(OC(F)(F)F)c2oc1=O [compound 61, 8-Trifluoromethoxy-2-oxo-2H-chromene-3-carboxylic acid (4′-phenoxy-biphenyl-3-yl)-amide] | > 100 µM | > 100 µM | > 100 µM |  |
| O=C(Nc1cccc(-c2ccc3c(c2)CCO3)c1)c1cc2cccc(OC(F)(F)F)c2oc1=O [compound 76, 8-Trifluoromethoxy-2-oxo-2H-chromene-3-carboxylic acid [3-(2,3-dihydro-benzofuran-5-yl)-phenyl]-amide] | > 100 µM | > 100 µM | > 100 µM |  |
| O=C(Nc1cccc(-c2ccc3cc[nH]c3c2)c1)c1cc2cccc(O)c2oc1=O [compound 165, 8-Hydroxy-2-oxo-2H-chromene-3-carboxylic acid [3-(1H-indol-6-yl)-phenyl]-amide] | > 100 µM | > 100 µM |  | > 100 µM |
| COc1cc(N2CCOCC2)c2oc(=O)c(C(=O)Nc3cccc(-c4cn5ccccc5n4)c3)cc2c1 [compound 14, 6-Methoxy-8-morpholin-4-yl-2-oxo-2H-chromene-3-carboxylic acid (3-imidazo[1,2-a]pyridin-2-yl-phenyl)-amide] |  | > 100 µM | > 100 µM |  |
| COc1cc(CN2CCOCC2)c2oc(=O)c(C(=O)Nc3cccc(-c4cn5ccccc5n4)c3)cc2c1 [1541D, 6-Methoxy-8-morpholin-4-ylmethyl-2-oxo-2H-chromene-3-carboxylic acid (3-imidazo[1,2-a]pyridin-2-yl-phenyl)-amide] |  | > 100 µM | > 100 µM |  |
| COc1cccc2cc(C(=O)Nc3cccc(-c4nc5ccccc5[nH]4)c3)c(=O)oc12 [1541F, 8-Methoxy-2-oxo-2H-chromene-3-carboxylic acid [3-(1H-benzoimidazol-2-yl)-phenyl]-amide] |  | > 100 µM | > 100 µM |  |
| O=C(Nc1cccc(-c2cn3ccccc3n2)c1)c1cc2cc(Br)ccc2oc1=O [compound 1, 6-Bromo-2-oxo-2H-chromene-3-carboxylic acid (3-imidazo[1,2-a]pyridin-2-yl-phenyl)-amide] |  | 50 to 200 µM | 50 to 200 µM |  |
| COc1ccc2cc(C(=O)Nc3cccc(-c4cn5ccccc5n4)c3)c(=O)oc2c1 [1541C, 7-Methoxy-2-oxo-2H-chromene-3-carboxylic acid (3-imidazo[1,2-a]pyridin-2-yl-phenyl)-amide] |  | > 100 µM | > 100 µM |  |
| O=C(Nc1cccc(-c2cn3ccccc3n2)c1)c1cc2cccc(Br)c2oc1=O [compound 4, 8-Bromo-2-oxo-2H-chromene-3-carboxylic acid (3-imidazo[1,2-a]pyridin-2-yl-phenyl)-amide] |  | > 100 µM | > 100 µM |  |
| O=C(Nc1cccc(-c2cn3ccccc3n2)c1)c1cc2ccccc2[nH]c1=O [compound 181, 2-Oxo-1,2-dihydro-quinoline-3-carboxylic acid (3-imidazo[1,2-a]pyridin-2-yl-phenyl)-amide] |  | 10 to 50 µM | 10 to 50 µM |  |
| COc1cccc2cc(C(=O)Nc3cccc(-c4ccncc4)c3)c(=O)oc12 [compound 20, 8-Methoxy-2-oxo-2H-chromene-3-carboxylic acid (3-pyridin-4-yl-phenyl)-amide] |  | > 100 µM | > 100 µM |  |
| O=C(Nc1cccc(-c2cn3ccccc3n2)c1)c1cc2ccc(O)c(O)c2oc1=O [compound 3, 7,8-Dihydroxy-2-oxo-2H-chromene-3-carboxylic acid (3-imidazo[1,2-a]pyridin-2-yl-phenyl)-amide] |  | > 100 µM | 50 to 200 µM |  |

Second part, led by results:

| EC50 (procaspase-7) | EC50 (procaspase-6) | EC50 (procaspase-3; [1]) | Structure (SMILES) | EC50 (procaspase-3) |
| --- | --- | --- | --- | --- |
| > 100 µM | > 100 µM | > 100 µM | CCOc1ccc(-c2cccc(NC(=O)c3cc4cccc(OC(F)(F)F)c4oc3=O)c2)cc1 [compound 70, 8-Trifluoromethoxy-2-oxo-2H-chromene-3-carboxylic acid (4′-ethoxy-biphenyl-3-yl)-amide] |  |
| 10 to 50 µM | > 100 µM | > 100 µM | O=C(Nc1cccc(-c2ccc3c(c2)OCO3)c1)c1cc2cccc(O)c2oc1=O [compound 62, 8-Hydroxy-2-oxo-2H-chromene-3-carboxylic acid (3-Benzo[1,3]dioxol-5-yl-phenyl)-amide] |  |
| > 100 µM | > 100 µM | > 100 µM | COc1ncc(-c2cccc(NC(=O)c3cc4cccc(OC)c4oc3=O)c2)cn1 [compound 134, 8-Methoxy-2-oxo-2H-chromene-3-carboxylic acid [3-(2-methoxy-pyrimidin-5-yl)-phenyl]-amide] |  |
|  | > 100 µM | > 100 µM | O=C(Nc1cccc(-c2cn3ccccc3n2)c1)c1cc2cc(I)ccc2oc1=O [compound 10, 6-Iodo-2-oxo-2H-chromene-3-carboxylic acid (3-imidazo[1,2-a]pyridin-2-yl-phenyl)-amide] |  |
|  | > 100 µM | > 100 µM | COc1cccc2c1OCC(C(=O)Nc1cccc(-c3cn4ccccc4n3)c1)=C2 [compound 182, 8-Methoxy-2H-chromene-3-carboxylic acid (3-imidazo[1,2-a]pyridin-2-yl-phenyl)-amide] |  |
|  | > 100 µM | > 100 µM | O=C(Nc1cccc(-c2cn3ccccc3n2)c1)c1cc2cccc(OC(F)(F)F)c2oc1=O [1541B, 2-Oxo-8-trifluoromethoxy-2H-chromene-3-carboxylic acid (3-imidazo[1,2-a]pyridin-2-yl-phenyl)-amide] |  |
|  | > 100 µM | > 100 µM | COc1cccc2cc(C(=O)Nc3ccccc3)c(=O)oc12 [1541H, 8-Methoxy-2-oxo-2H-chromene-3-carboxylic acid phenylamide] |  |

From US8642788B2, “Activators of executioner procaspases 3, 6 and 7” (The Regents of the University of California, priority 2008, dated 2014)
